US20260022143A1, “Cyclic Peptide Inhibitors of IL-23” (JANSSEN PHARMACEUTICA NV, priority 2022, published 2026)
Starred links: 1 amine or outer side, 2 acyl side, 3 side chain; linkers in the order of their positions; H or OH if unused. Positions of bridges follow the written chain, without caps; N, C: chain ends. Non-standard residues stand in square brackets, D forms with d. Residues, ends and D or L forms follow the SMILES beside them. *: point of attachment. X51 = C[N+](C)(C)CCCc1cn(-c2ccc(C[C@H](N[*:1])C(=O)[*:2])cc2)nn1; X16 = C[N+](C)(C)Cc1cn(-c2ccc(C[C@H](N[*:1])C(=O)[*:2])cc2)nn1; Me3N+CH2CH2(OCH2CH2)4CO = C[N+](C)(C)CCOCCOCCOCCOCCC(=O)*; Me3N+(CH2)2O(CH2)2O(CH2)2CO = C[N+](C)(C)CCOCCOCCC(=O)*; CH2CH2OCH2CH2OCH2CH2NMe3+ = C[N+](C)(C)CCOCCOCC*; Trp(7-Me) = Cc1cccc2c(C[C@H](N)C(=O)O)c[nH]c12; Dab(NMeAc) = CC(=O)N(C)CC[C@H](N)C(=O)O; X1 = CN(CC[C@H](N[*:1])C(=O)[*:2])[*:3]; 2Nal = N[C@@H](Cc1ccc2ccccc2c1)C(=O)O; AEF = NCCOc1ccc(C[C@H](N)C(=O)O)cc1; X19 = C[N+](C)(C)C[C@@H](CC(=O)O)N*; X24 = C[N+](C)(CCN[*:1])CC(=O)[*:2]; dNMeY = CN[C@H](Cc1ccc(O)cc1)C(=O)O; 3Pal = N[C@@H](Cc1cccnc1)C(=O)O; Cit = NC(=O)NCCC[C@H](N)C(=O)O; Lys(Me) = CNCCCC[C@H](N)C(=O)O; X7 = COCCOCCOCCOCCOCCOCCC(=O)*; αMeL = CC(C)C[C@](C)(N)C(=O)O; Pen = CC(C)(S)[C@H](N)C(=O)O; Thp = NC1(C(=O)O)CCOCC1; Sar = CNCC(=O)O

Tests used:
[1] = Exposed Polar Surface Area (EPSA); type: physicochemical; settings: SFC on Chirex 3014 column; sample 1 mM DMSO stock; read-out: EPSA
Procedure, shortened: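 Compounds, as 1 mM DMSO stock, were injected in duplicate onto an SFC Chirex 3014 column at 35 °C and eluted with a CO2/methanol (20 mM ammonium formate) gradient. EPSA values in Å^2 were derived from retention times using a linear fit to eight calibration standards, reinjected every 20 compounds.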

[2] = target: T1, IL-23R (Homo sapiens, UniProt Q5VWK5); assay: IL23R Reporter Assay; type: cell-based; settings: HEK293 cells containing IL-23R, IL-12RP1 and STAT-inducible firefly luciferase reporter; 10 ng/mL IL-23 (EC90); 5 h at 37° C.; read-out: IL23R Reporter Assay
T1 construct: host or cells: HEK293
T1 sequence (Q5VWK5 24-629): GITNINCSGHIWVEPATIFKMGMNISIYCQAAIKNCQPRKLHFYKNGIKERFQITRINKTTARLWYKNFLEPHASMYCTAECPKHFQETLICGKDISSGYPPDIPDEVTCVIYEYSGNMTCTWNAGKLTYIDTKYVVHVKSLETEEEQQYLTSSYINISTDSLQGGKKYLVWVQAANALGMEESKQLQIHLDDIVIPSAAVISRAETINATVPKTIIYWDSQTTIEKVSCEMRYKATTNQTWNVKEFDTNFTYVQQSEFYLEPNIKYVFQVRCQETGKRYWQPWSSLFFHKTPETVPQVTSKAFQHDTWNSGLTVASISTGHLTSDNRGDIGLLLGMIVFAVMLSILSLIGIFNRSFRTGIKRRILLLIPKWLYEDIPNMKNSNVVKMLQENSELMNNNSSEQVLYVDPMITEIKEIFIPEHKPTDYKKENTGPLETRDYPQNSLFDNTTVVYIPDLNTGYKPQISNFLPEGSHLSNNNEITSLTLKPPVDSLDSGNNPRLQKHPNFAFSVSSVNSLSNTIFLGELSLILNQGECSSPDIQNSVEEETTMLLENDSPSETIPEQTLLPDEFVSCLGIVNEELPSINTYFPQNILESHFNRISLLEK

Structure (SMILES) | EPSA [1] [A^2] | IC50 [2] [nM]
CC(=O)NCCCC[C@@H]1NC(=O)[C@H](Cc2c[nH]c3c(C)cccc23)NC(=O)[C@H]([C@@H](C)O)NC(=O)[C@H](CC(N)=O)NC(=O)[C@@H](NC(C)=O)C(C)(C)SSC(C)(C)[C@@H](C(=O)N[C@@H](Cc2ccc(-n3cc(C[N+](C)(C)C)nn3)cc2)C(=O)N[C@@H](Cc2ccc3ccccc3c2)C(=O)NC2(C(=O)N[C@@H](CCCCNC(C)=O)C(=O)N[C@@H](CC(N)=O)C(=O)N[C@@H](Cc3cccnc3)C(=O)N(C)CC(N)=O)CCOCC2)NC1=O [compound 426] (Ac-[Pen]NT[Trp(7-Me)]K(Ac)[Pen][X16][2Nal][Thp]K(Ac)N[3Pal][Sar]-NH2; disulfide 1-6 (inferred)) | 163 | 1.6
CC(=O)N(C)CCCC[C@H](NC(=O)[C@H](Cc1ccccc1)NC(=O)[C@H](Cc1ccc2ccccc2c1)NC(=O)[C@H](Cc1ccc(OCCOCCOCC[N+](C)(C)C)cc1)NC(=O)[C@H]1NC(=O)[C@H](Cc2ccccc2)NC(=O)[C@H](Cc2c[nH]c3c(C)cccc23)NC(=O)[C@H]([C@@H](C)O)NC(=O)[C@H](Cc2ccccc2)NC(=O)[C@@H](NC(=O)CCOCCOCC[N+](C)(C)C)C(C)(C)SSC1(C)C)C(=O)N[C@@H](CC(N)=O)C(=O)N[C@@H](Cc1cccnc1)C(=O)N(C)CC(=O)N(C)C [compound 464, cPEG3aCO-Pen(3)-F-T-7MeW-F-Pen(3)-APEG3f-2Nal-F-K(NMeAc)-N-3Pya-Sar-CON(Me)2] ({Me3N+(CH2)2O(CH2)2O(CH2)2CO}-[Pen]FT[Trp(7-Me)]F[Pen]Y(CH2CH2OCH2CH2OCH2CH2NMe3+)[2Nal]F[Lys(Me)](Ac)N[3Pal][Sar]-NMe2; disulfide 1-6) | 160 | 30
CC(=O)NCCCC[C@@H]1NC(=O)[C@H](Cc2c[nH]c3c(C)cccc23)NC(=O)[C@H]([C@@H](C)O)NC(=O)[C@H](CC(N)=O)NC(=O)[C@@H](NC(=O)CCOCCOCC[N+](C)(C)C)C(C)(C)SSC(C)(C)[C@@H](C(=O)N[C@@H](Cc2ccc(OCCN)cc2)C(=O)N[C@@H](Cc2ccc3ccccc3c2)C(=O)NC2(C(=O)N[C@@H](CCCCNC(C)=O)C(=O)N[C@@H](CC(N)=O)C(=O)N[C@@H](Cc3cccnc3)C(=O)N(C)CC(N)=O)CCOCC2)NC1=O [compound 90, cPEG3aCO-Pen(3)-N-T-7MeW-K(Ac)-Pen(3)-AEF-2Nal-THP-K(Ac)-N-3Pya-Sar-CONH2] ({Me3N+(CH2)2O(CH2)2O(CH2)2CO}-[Pen]NT[Trp(7-Me)]K(Ac)[Pen][AEF][2Nal][Thp]K(Ac)N[3Pal][Sar]-NH2; disulfide 1-6) | 164 | 3.7
CC(=O)N(C)CC[C@H](NC(=O)C1(NC(=O)[C@H](Cc2ccc3ccccc3c2)NC(=O)[C@H](Cc2ccc(OCCN)cc2)NC(=O)[C@H]2NC(=O)[C@H](CCC(=O)N(C)C)NC(=O)[C@H](Cc3c[nH]c4c(C)cccc34)NC(=O)[C@H]([C@@H](C)O)NC(=O)[C@H](CC(N)=O)NC(=O)[C@@H](NC(=O)CCOCCOCC[N+](C)(C)C)C(C)(C)SSC2(C)C)CCOCC1)C(=O)N[C@@H](CC(N)=O)C(=O)N[C@@H](Cc1cccnc1)C(=O)N(C)CC(N)=O [compound 178, cPEG3aCO-Pen(3)-N-T-7MeW-Q(N(Me)2)-Pen(3)-AEF-2Nal-THP-Dab(NMeAc)-N-3Pya-Sar-CONH2] ({Me3N+(CH2)2O(CH2)2O(CH2)2CO}-[Pen]NT[Trp(7-Me)]E(NMe2)[Pen][AEF][2Nal][Thp][Dab(NMeAc)]N[3Pal][Sar]-NH2; disulfide 1-6) | 154 | 2

Continued by falling IC50 [2], values first:

EPSA [1] [A^2] | IC50 [2] [nM] | Structure (SMILES)
186 | 38 | CC(=O)N[C@H](CCCNC(=N)N)C(=O)N[C@@H]1C(=O)N[C@@H](CC(N)=O)C(=O)N[C@@H]([C@@H](C)O)C(=O)N[C@@H](Cc2c[nH]c3c(C)cccc23)C(=O)N[C@@H](CCCNC(N)=O)C(=O)N[C@H](C(=O)N[C@@H](Cc2ccc(OCCN)cc2)C(=O)N[C@@H](Cc2ccc3ccccc3c2)C(=O)N[C@@](C)(CC(C)C)C(=O)N[C@@H](CCC(=O)O)C(=O)N[C@@H](CC(N)=O)C(=O)N[C@H](Cc2c[nH]cn2)C(=O)N(C)[C@H](Cc2ccc(O)cc2)C(N)=O)C(C)(C)SSC1(C)C [compound 17, MeCO-r-Pen(3)-N-T-7MeW-Cit-Pen(3)-AEF-2Nal-aMeL-E-N-h-NMeDTyr-CONH2] (Ac-[dR][Pen]NT[Trp(7-Me)][Cit][Pen][AEF][2Nal][αMeL]EN[dH][dNMeY]-NH2; disulfide 2-7)
161 | 6.5 | COCCOCCOCCOCCOCCOCCC(=O)NCC[N+](C)(C)CC(=O)N[C@@H]1C(=O)N[C@@H](CC(=O)N(C)C)C(=O)N[C@@H]([C@@H](C)O)C(=O)N[C@@H](Cc2c[nH]c3c(C)cccc23)C(=O)N[C@@H](CCN(C)C(=O)CCOCCOCCOCCOCC[N+](C)(C)C)C(=O)N[C@H](C(=O)N[C@@H](Cc2ccc(OCCN)cc2)C(=O)N[C@@H](Cc2ccc3ccccc3c2)C(=O)NC2(C(=O)N[C@@H](CCC(=O)O)C(=O)N[C@@H](CC(N)=O)C(=O)N[C@@H](Cc3cccnc3)C(=O)N(C)CC(=O)N(C)C)CCOCC2)C(C)(C)SSC1(C)C [compound 143, mPEG6CO-SP6-Pen(3)-N(N(Me)2)-T-7MeW-Dab(NMecPEG5a)-Pen(3)-AEF-2Nal-THP-E-N-3Pya-Sar-CON(Me)2] (X7-[X24][Pen]D(NMe2)T[Trp(7-Me)][X1](Me3N+CH2CH2(OCH2CH2)4CO)[Pen][AEF][2Nal][Thp]EN[3Pal][Sar]-NMe2; disulfide 2-7 (inferred))
172 | 2.6 | CC(=O)NCCCC[C@@H]1NC(=O)[C@H](Cc2c[nH]c3c(C)cccc23)NC(=O)[C@H]([C@@H](C)O)NC(=O)[C@H](CC(N)=O)NC(=O)[C@@H](NC(C)=O)C(C)(C)SSC(C)(C)[C@@H](C(=O)N[C@@H](Cc2ccc(-n3cc(CCC[N+](C)(C)C)nn3)cc2)C(=O)N[C@@H](Cc2ccc3ccccc3c2)C(=O)NC2(C(=O)N[C@@H](CCC(=O)O)C(=O)N[C@@H](CC(N)=O)C(=O)N[C@@H](Cc3cccnc3)C(=O)N(C)CC(N)=O)CCOCC2)NC1=O [compound 458] (Ac-[Pen]NT[Trp(7-Me)]K(Ac)[Pen][X51][2Nal][Thp]EN[3Pal][Sar]-NH2; disulfide 1-6 (inferred))
181 | 2 | CC(=O)NCCCC[C@@H]1NC(=O)[C@H](Cc2c[nH]c3c(C)cccc23)NC(=O)[C@H]([C@@H](C)O)NC(=O)[C@H](CC(N)=O)NC(=O)[C@@H](NC(=O)[C@@H](CCC(=O)N[C@H](CC(=O)O)C[N+](C)(C)C)NC(C)=O)C(C)(C)SSC(C)(C)[C@@H](C(=O)N[C@@H](Cc2ccc(OCCN)cc2)C(=O)N[C@@H](Cc2ccc3ccccc3c2)C(=O)NC2(C(=O)N[C@@H](CCCCNC(C)=O)C(=O)N[C@@H](CC(N)=O)C(=O)N[C@@H](Cc3cccnc3)C(=O)N(C)CC(N)=O)CCOCC2)NC1=O [compound 125] (Ac-[dE](X19)[Pen]NT[Trp(7-Me)]K(Ac)[Pen][AEF][2Nal][Thp]K(Ac)N[3Pal][Sar]-NH2; disulfide 2-7 (inferred))
